Assay results from patent US20230159538A1, “PYRROLIDINE-PYRAZOLES AS PYRUVATE KINASE ACTIVATORS” (Global Blood Therapeutics, Inc., priority 2020, published 2023).

Molecular target: T1, Human pyruvate kinase R (PKR) (Homo sapiens, UniProt P30613)
T1 construct: Human pyruvate kinase R (PKR), residues 14-574; 6x-His (N, cleaved yes); 8x-Arg (N, cleaved yes); SUMO (N, cleaved yes); host or cells: E. coli
Assay: Biochemical assay for activation of pyruvate kinase R (Kinase-Glo luminescence, ATP generation)
Settings: for AC50: 0.1 nM PKR, 2 mM FBP, 0.3 mM ADP, 0.1 mM PEP; for PKR % activation: maximal activation level relative to the activation level achieved by AG-348 @ 10 μM
Method: Proteins were translated as fusions with 6×-His, 8×-Arg, and SUMO at the N-terminus. […] All proteins were cloned, expressed in E. coli, and purified using similar protocols. Cells were grown at 30° C. in Luria-Bertani broth supplemented with 0.4% glucose to OD600=0.8 and induced with 0.4 mM IPTG at 16° C. for 18 hours. Cells were harvested by centrifugation, resuspended in 50 mM potassium phosphate pH 8.0, 500 mM NaCl, 25 mM imidazole pH 8.0, and 3 mM β-mercaptoethanol. Cells were lysed using a LM20 microfluidizer from Microfluidics (Westwood, Mass.). The crude lysate was immediately supplemented with 0.2 mM phenylmethylsulfonyl fluoride (PMSF) and centrifuged at 20,000 g for 20 minutes. The soluble fraction was subsequently incubated with 2 mL Ni-NTA (GE Healthcare) per 1,000 ODs for 1 hour at 4° C. Following incubation with the Ni-NTA resin, lysate was removed by pelleting resin at 2,500 g for 3 minutes and washed 3 times with 9 bed volumes of 50 mM potassium phosphate pH 8.0, 500 mM NaCl, 25 mM imidazole, and 3 mM β-mercaptoethanol. Following the batch wash Ni-NTA resin was loaded onto a gravity column and His-tagged protein was eluted with 6 bed volumes of 10 mM Tris/HCl pH 8.0, 200 mM NaCl, 500 mM imidazole, and 3 mM β-mercaptoethanol. Eluted protein was dialyzed overnight against 10 mM Tris/HCl pH 8.0, 200 mM NaCl, and 1 mM DTT and the 6×-His-8×-Arg-SUMO-tag was cleaved using a 20:1 molar ratio of protein:3C protease. The protein was purified by anion exchange chromatography on a HiTrapQ or MonoQ 10/100 GL column (GE Healthcare) via a linear NaCl gradient and twice by size exclusion chromatography using a Superdex S200 26/60 column (GE Healthcare) run in 10 mM Tris/HCl pH 8.0, 200 mM NaCl, 10 mM MgCl2, 1 mM DTT. Proteins were concentrated to ˜12 mg/mL for crystallization and flash frozen for storage.
Biochemical Assay for Activation of Pyruvate Kinase R
Activation of pyruvate kinase R (PKR) and pyruvate kinase M2 (PKM2) were measured using a luminescence based measurement of ATP generation and the Kinase-Glo luminescent kinase reagent kit.

T1 sequence (P30613 14-574): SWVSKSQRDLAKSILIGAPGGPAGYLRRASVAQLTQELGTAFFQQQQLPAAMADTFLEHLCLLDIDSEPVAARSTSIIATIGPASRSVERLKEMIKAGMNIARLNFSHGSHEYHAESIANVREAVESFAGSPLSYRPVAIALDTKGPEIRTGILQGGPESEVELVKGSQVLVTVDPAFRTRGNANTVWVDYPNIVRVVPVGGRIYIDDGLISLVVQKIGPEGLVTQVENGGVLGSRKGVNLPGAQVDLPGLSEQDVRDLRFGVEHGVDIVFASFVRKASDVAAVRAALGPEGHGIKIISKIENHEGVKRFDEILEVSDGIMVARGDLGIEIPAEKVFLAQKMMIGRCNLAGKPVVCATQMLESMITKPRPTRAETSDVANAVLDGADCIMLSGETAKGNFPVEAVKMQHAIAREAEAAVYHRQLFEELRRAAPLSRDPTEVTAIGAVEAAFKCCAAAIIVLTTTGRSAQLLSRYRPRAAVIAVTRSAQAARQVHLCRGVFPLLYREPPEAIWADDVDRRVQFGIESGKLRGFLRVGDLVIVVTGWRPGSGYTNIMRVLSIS

| AC50 [nM] | Compound | PKR % activation [%] |
| --- | --- | --- |
| > 10000 | O=C([C@@H](c1ccccc1)N1CCOCC1)N1Cc2cn(S(=O)(=O)c3ccc(OC(F)F)cc3)nc2C1 (single isomer, unassigned) [Compound 108, (2R)-1-{2-[4-(difluoromethoxy)benzenesulfonyl]-2H,4H,5H,6H-pyrrolo[3,4-c]pyrazol-5-yl}-2-(morpholin-4-yl)-2-phenylethan-1-one or (2S)-1-{2-[4-(difluoromethoxy)benzenesulfonyl]-2H,4H,5H,6H-pyrrolo[3,4-c]pyrazol-5-yl}-2-(morpholin-4-yl)-2-phenylethan-1-one] | 0 |
| 23 | N[C@@H](C(=O)N1Cc2cn(S(=O)(=O)c3ccc(OC(F)F)cc3)nc2C1)c1ccc(Cl)cc1 [Compound 51, (2R)-2-amino-2-(4-chlorophenyl)-1-{2-[4-(difluoromethoxy)benzenesulfonyl]-2H,4H,5H,6H-pyrrolo[3,4-c]pyrazol-5-yl}ethan-1-one] | – |
| 13 | N[C@@H](C(=O)N1Cc2cn(S(=O)(=O)c3ccc4ncsc4c3)nc2C1)c1ccccc1Cl [Compound 52, (2R)-2-amino-1-[2-(1,3-benzothiazole-6-sulfonyl)-2H,4H,5H,6H-pyrrolo[3,4-c]pyrazol-5-yl]-2-(2-chlorophenyl)ethan-1-one] | – |
| 36 | N[C@@H](C(=O)N1Cc2cn(S(=O)(=O)c3ccc4ncsc4c3)nc2C1)c1cccc(Cl)c1 [Compound 53, (2R)-2-amino-1-[2-(1,3-benzothiazole-6-sulfonyl)-2H,4H,5H,6H-pyrrolo[3,4-c]pyrazol-5-yl]-2-(3-chlorophenyl)ethan-1-one] | – |
| 30 | N[C@@H](C(=O)N1Cc2cn(S(=O)(=O)c3ccc(OC(F)F)cc3)nc2C1)c1ccccc1F [Compound 56, (2R)-2-amino-1-{2-[4-(difluoromethoxy)benzenesulfonyl]-2H,4H,5H,6H-pyrrolo[3,4-c]pyrazol-5-yl}-2-(2-fluorophenyl)ethan-1-one] | – |
| 17 | N[C@@H](C(=O)N1Cc2cn(S(=O)(=O)c3ccc4c(c3)NCCO4)nc2C1)c1ccccc1F [Compound 57, (2R)-2-amino-1-[2-(3,4-dihydro-2H-1,4-benzoxazine-6-sulfonyl)-2H,4H,5H,6H-pyrrolo[3,4-c]pyrazol-5-yl]-2-(2-fluorophenyl)ethan-1-one] | – |
| 25 | N[C@@H](C(=O)N1Cc2cn(S(=O)(=O)c3ccc4c(c3)OCCO4)nc2C1)c1ccccc1F [Compound 58, (2R)-2-amino-1-[2-(2,3-dihydro-1,4-benzodioxine-6-sulfonyl)-2H,4H,5H,6H-pyrrolo[3,4-c]pyrazol-5-yl]-2-(2-fluorophenyl)ethan-1-one] | – |
| 48 | Cc1ccccc1[C@@H](N)C(=O)N1Cc2cn(S(=O)(=O)c3ccc4ncsc4c3)nc2C1 [Compound 59, (2R)-2-amino-1-[2-(1,3-benzothiazole-6-sulfonyl)-2H,4H,5H,6H-pyrrolo[3,4-c]pyrazol-5-yl]-2-(2-methylphenyl)ethan-1-one] | – |
| 77 | C[C@](N)(C(=O)N1Cc2cn(S(=O)(=O)c3ccc4ncsc4c3)nc2C1)c1ccccc1 [Compound 60, (2R)-2-amino-1-[2-(1,3-benzothiazole-6-sulfonyl)-2H,4H,5H,6H-pyrrolo[3,4-c]pyrazol-5-yl]-2-phenylpropan-1-one] | – |
| 8.3 | N[C@@H](C(=O)N1Cc2cn(S(=O)(=O)c3ccc4ncsc4c3)nc2C1)c1ccccc1Cl [Compound 63, (2R)-2-amino-1-[2-(1,3-benzothiazole-6-sulfonyl)-2H,4H,5H,6H-pyrrolo[3,4-c]pyrazol-5-yl]-2-(2-chlorophenyl)ethan-1-one] | – |
| 3.4 | N[C@@H](C(=O)N1Cc2cn(S(=O)(=O)c3ccc4occc4c3)nc2C1)c1ccccc1F [Compound 64, (2R)-2-amino-1-[2-(1-benzofuran-5-sulfonyl)-2H,4H,5H,6H-pyrrolo[3,4-c]pyrazol-5-yl]-2-(2-fluorophenyl)ethan-1-one] | – |
| 6.2 | O=C([C@H](O)c1ccccc1Cl)N1Cc2cn(S(=O)(=O)c3ccc4ncsc4c3)nc2C1 [Compound 65, (2R)-1-[2-(1,3-benzothiazole-6-sulfonyl)-2H,4H,5H,6H-pyrrolo [3,4-c]pyrazol-5-yl]-2-(2-chlorophenyl)-2-hydroxyethan-1-one] | – |

Further lines, the molecule ahead of its results:

| Compound | AC50 [nM] | PKR % activation [%] |
| --- | --- | --- |
| C[C@@H](O)[C@H](C(=O)N1Cc2cn(S(=O)(=O)c3ccc4ncsc4c3)nc2C1)c1ccccc1 [Compound 4] | 1810 | 100 |
| C[C@@H](O)[C@H](C(=O)N1Cc2cn(S(=O)(=O)c3ccc4ncsc4c3)nc2C1)c1ccccc1 [Compound 6] | 2530 | 150 |
| C[C@@H](O)[C@H](C(=O)N1Cc2cn(S(=O)(=O)c3ccc(OC(F)F)cc3)nc2C1)c1ccccc1 [Compound 9] | 147 | 131 |
| C[C@@H](O)[C@H](C(=O)N1Cc2cn(S(=O)(=O)c3ccc(OC(F)F)cc3)nc2C1)c1ccccc1 [Compound 10] | 455 | 165 |
| C[C@@H](O)[C@H](C(=O)N1Cc2cn(S(=O)(=O)c3ccc(OC(F)F)cc3)nc2C1)c1ccccc1 [Compound 11] | 7270 | 164 |
| NCC(C(=O)N1Cc2cn(S(=O)(=O)c3ccc4ncsc4c3)nc2C1)c1ccccc1 (stereo not shown) [Compound 13, 3-amino-1-[2-(1,3-benzothiazole-6-sulfonyl)-2H,4H,5H,6H-pyrrolo[3,4-c]pyrazol-5-yl]-2-phenylpropan-1-one] | 167 | – |
| N[C@@H](C(=O)N1Cc2cn(S(=O)(=O)c3ccc4c(c3)NCCO4)nc2C1)c1ccccc1 [Compound 16, (2R)-2-amino-1-[2-(3,4-dihydro-2H-1,4-benzoxazine-6-sulfonyl)-2H,4H,5H,6H-pyrrolo[3,4-c]pyrazol-5-yl]-2-phenylethan-1-one] | 156 | – |
| O=C(N1Cc2cn(S(=O)(=O)c3ccc4ncsc4c3)nc2C1)C1(c2ccccc2)CCOC1 (stereo not shown) [Compound 18, 6-{[5-(3-phenyloxolane-3-carbonyl)-2H,4H,5H,6H-pyrrolo[3,4-c]pyrazol-2-yl]sulfonyl}-1,3-benzothiazole] | 83 | – |
| O=C(N1Cc2cn(S(=O)(=O)c3ccc4ncsc4c3)nc2C1)C1(c2ccccc2)COCCN1 (stereo not shown) [Compound 21, 6-{[5-(3-phenylmorpholine-3-carbonyl)-2H,4H,5H,6H-pyrrolo[3,4-c]pyrazol-2-yl]sulfonyl}-1,3-benzothiazole] | 209 | – |
| N[C@@H](C(=O)N1Cc2cn(S(=O)(=O)c3ccc4ncsc4c3)nc2C1)c1ccc(F)cc1 [Compound 28, (2R)-2-amino-1-[2-(1,3-benzothiazole-6-sulfonyl)-2H,4H,5H,6H-pyrrolo[3,4-c]pyrazol-5-yl]-2-(4-fluorophenyl)ethan-1-one] | 13 | – |
| N[C@@H](C(=O)N1Cc2cn(S(=O)(=O)c3ccc(OC(F)F)cc3)nc2C1)c1cccc(OC(F)(F)F)c1 [Compound 30, (2R)-2-amino-1-{2-[4-(difluoromethoxy)benzenesulfonyl]-2H,4H,5H,6H-pyrrolo[3,4-c]pyrazol-5-yl}-2-[3-(trifluoromethoxy)phenyl]ethan-1-one] | 371 | – |
| CC(C)(O)[C@H](C(=O)N1Cc2cn(S(=O)(=O)c3ccc4occc4c3)nc2C1)c1ccccc1 [Compound 33, (2R)-1-[2-(1-benzofuran-5-sulfonyl)-2H,4H,5H,6H-pyrrolo[3,4-c]pyrazol-5-yl]-3-hydroxy-3-methyl-2-phenylbutan-1-one] | 130 | – |
| CC(C)(O)[C@@H](C(=O)N1Cc2cn(S(=O)(=O)c3ccc4occc4c3)nc2C1)c1ccccc1 [Compound 34, (2S)-1-[2-(1-benzofuran-5-sulfonyl)-2H,4H,5H,6H-pyrrolo[3,4-c]pyrazol-5-yl]-3-hydroxy-3-methyl-2-phenylbutan-1-one] | 210 | – |
| N[C@H](C(=O)N1Cc2cn(S(=O)(=O)c3ccc4ncsc4c3)nc2C1)c1ccccc1F [Compound 38, (2S)-2-amino-1-[2-(1,3-benzothiazole-6-sulfonyl)-2H,4H,5H,6H-pyrrolo[3,4-c]pyrazol-5-yl]-2-(2-fluorophenyl)ethan-1-one] | 270 | – |
| N[C@@H](C(=O)N1Cc2cn(S(=O)(=O)c3ccc(OC(F)F)cc3)nc2C1)c1ccc(F)cc1 [Compound 49, (2R)-2-amino-1-{2-[4-(difluoromethoxy)benzenesulfonyl]-2H,4H,5H,6H-pyrrolo[3,4-c]pyrazol-5-yl}-2-(4-fluorophenyl)ethan-1-one] | 17 | – |
| N[C@@H](C(=O)N1Cc2cn(S(=O)(=O)c3ccc(OC(F)F)cc3)nc2C1)c1cccc(Cl)c1 [Compound 50, (2R)-2-amino-2-(3-chlorophenyl)-1-{2-[4-(difluoromethoxy)benzenesulfonyl]-2H,4H,5H,6H-pyrrolo[3,4-c]pyrazol-5-yl}ethan-1-one] | 71 | – |
